Read-outs that look alike come from different tables or passages of the source. Values belong to the molecule of their own block, whether it stands above or below them.
What was measured:
[1] = test system: P4(20)-Fn protein-P20.1 antibody binding; assay: Competitive dissociation by peptide (ELISA); details: peptide concentration of 0.1 mg/mL, 30 minutes
Procedure: For examination on whether an excess of free peptides can disrupt protein-P20.1 antibody binding, at the final washing step of the (3-1) ELISA experiment using the P4(20)-Fn protein, buffer solutions containing different concentrations of the P4(C8) peptide (8-residue peptide PRGYPGQV (SEQ ID NO: 20) synthesized by the Fmoc method) were added to wells and the plates were allowed to stand for 30 minutes.

[2] = test system: P4×3-tagged hGH fusion protein bound to P20.1 antibody-Sepharose; assay: Elution of P4×3-tagged hGH fusion protein from P20.1 antibody-Sepharose; details: in TBS, room temperature, 10 minutes
Procedure: With 8 mL of the culture supernatant of cells expressing the P4×3-tagged hGH fusion protein, 100 μL of the P20.1 antibody-Sepharose (0.2 mg in terms of the P20.1 antibody, bead form) was mixed, and then the mixture was allowed to react at 4° C. for 3 hours. After the reaction, the beads were washed with 3 mL of Tris-buffered saline (TBS; 20 mM Tris-HCl, 150 mM NaCl, pH 7.5), and 300 μL of an eluent as shown below was added to and mixed with the beads at room temperature for 10 minutes. The effluent obtained by each eluent was concentrated and then was subjected to SDS gel electrophoresis at an equal amount. For comparison, affinity binding was also performed using Ni-NTA beads on the same conditions as above, and the effluent obtained by use of imidazole as an eluent was analyzed simultaneously.
The above-mentioned numbers correspond to the lane numbers in FIG. 23 (a). “Ni” indicates the effluent from Ni-NTA beads. As shown in FIG. 23 (a), the tagged fusion protein which was bound to the P20.1 antibody-Sepharose was not only eluted with 0.1 mg/mL or more of the P4(C8) peptide, but also completely eluted by combined use of propylene glycol and sodium chloride. […]

P20.1 antibody [3] = assay: Epitope analysis by ELISA with P4-Fn proteins and Ala mutants; format: binding, mouse; details: coated Fn fusion protein 10 μg/mL, P20.1 antibody 2 to 5 μg/mL, absorbance 405 nm
Procedure: The minimum peptide sequence required for recognition by the P20.1 antibody was identified by the ELISA method using various kinds of P4-Fn proteins prepared in the above (2-1). The protocol is as follows.
(1) A P4-Fn (or a mutant thereof) solution diluted at 10 μg/mL was added at 50 μL/well to 96-well plates, which were then allowed to stand (4° C., 16 hours).
(2) The supernatant of each well was removed with an aspirator, a 1% BSA solution in Tris-buffered saline (TBS; 20 mM Tris-HCl, 150 mM NaCl, pH 7.5) was added at 200 μL/well, and the plates were allowed to stand at room temperature for 1 hour.
(3) A P20.1 antibody solution (2 to 5 μg/mL) was added at 50 μL/well and the plates were allowed to stand at room temperature for 1 hour.
(4) Each well was washed with 200 μL of TBS 3 times.
(5) A peroxidase-labeled anti-mouse IgG (1/1000 dilution) was added at 50 μL/well, and the plates were allowed to stand at room temperature for 30 minutes.
(6) Each well was washed with 200 μL of TBS 4 times.
(7) A peroxidase chromogenic substrate (ABTS) was added at 100 μL/well, the plates were allowed to stand at room temperature for 5 to 10 minute, and then the absorbance of the solution in each well was measured at 405 nm.
The ELISA results of 5 different tag peptide fusion proteins having the P4 peptide attached to the N terminus of the Fn are shown in FIG. 5. […]

P20.1 antibody [4] = assay: Kinetics analysis by surface plasmon resonance, P4 sequence repeats over P20.1 antibody-immobilized sensor chip; format: binding, mouse; details: hGH-γC fusion proteins, flow rate 20 μL/min, Biacore X-100
Procedure: For improvement of the efficacious affinity for the P20.1 antibody, tag peptide fusion proteins having a repeated sequence, specifically 1, 3 or 5 repeats of the P4 sequence (referred to as P4×1, P4×3 or P4×5, in the above order) were prepared (see the above (2-2)). These proteins were allowed to separately pass at a flow rate of 20 μL/min over the P20.1 antibody-immobilized sensor chip, and kinetics analysis was conducted using Biacore X-100 (GE Healthcare).

P20.1 antibody-Sepharose = assay: Pull-down efficiency with P20.1 antibody-immobilized beads; format: binding, mouse; details: pull-down by P20.1 antibody-Sepharose
Procedure: Three different hGH-γC-P4 fusion proteins, which have P4×1, P4×3 or P4×5, were separately expressed in HEK293T cells. The fusion protein in the separate cell culture supernatant was quantified by the sandwich ELISA (which adopts a system of hGH antibody-mediated capture+anti-BAS serum-mediated detection, and is not dependent on the responsiveness to the P20.1 antibody) (before pull-down). Aside from this, to 1 mL of the cell culture supernatant, 20 μL of the P20.1 antibody-Sepharose (bead form) was added, and then the mixture was allowed to react at 4° C. for 1 hour. After the beads were precipitated by centrifugation, the fusion protein in the supernatant was quantified by the sandwich ELISA (which adopts a system of hGH antibody-mediated capture+anti-BAS serum-mediated detection, and is not dependent on the responsiveness to the P20.1 antibody) (after pull-down). The fusion protein purified with Ni-NTA agarose was used as a standard, and based on the standard curve, the fusion protein concentrations before and after pull-down by the P20.1 antibody were determined. As is clear from Table 4, 3 to 5 repeats of the P4 sequence achieves the binding efficiency of about 80%.

P20.1 antibody [5] = assay: Sandwich ELISA, P20.1 antibody as detection antibody; format: binding, mouse; details: diluted cell supernatant, biotinylated P20.1 antibody 5 μg/mL, absorbance 405 nm
Procedure: The anti-hGH monoclonal antibody HGH-B was immobilized to microtiter plates. After blocking, the supernatant of cells transiently expressing the hGH-γC-P4 fusion protein having P4×1, P4×3 or P4×5 linked thereto (see FIG. 3, FIG. 4 and SEQ ID NO: 15) was added at various dilution ratios to wells of the plates, which were then allowed to stand at 4° C. overnight. In this way, such a fusion protein was captured by the antibody on the plates. After washing, a biotinylated P20.1 antibody (5 μg/mL) was allowed to react with the fusion protein at room temperature for 30 minutes. After 3-time washing, peroxidase-labeled streptavidin (Zymed) was added to the plates, which were then allowed to stand at room temperature for additional 15 minutes. After addition of peroxidase substrate (ABTS), the absorbance at 405 nm was measured.

[6] = Phage display random screening of the peptide sequence recognizable by the P20.1 antibody; format: binding; details: panning with P20.1 antibody-immobilized magnetic beads
From the text: For extensive search for the peptide sequence recognizable by the P20.1 antibody, the phage display method was employed. The phagemid shown in FIG. 11 was constructed for insertion of the randomized 7-amino-acid peptide library (all of them have Tyr2 and Gln5 in common) into the N terminus of the gIII coat protein of M13 phage. As a result, the phage library of 10^7 members was obtained.
Through panning by use of P20.1 antibody-immobilized magnetic beads, a number of clones bound to the beads were obtained. The sequence of the variable region in these different clones was decoded by DNA sequencing, and the sequence pattern as shown in FIG. 12 was obtained. […] Namely, it can be said that the P20.1 antibody generally has a high affinity for the following peptide sequence: X1-Tyr2-Pro3-Gly4-Gln5-X6: SEQ ID NO:21 (wherein X1 is any amino acid residue; Pro3 may be an amino acid having a small side chain, such as S, V, C, A, T, E, G and D; and X6 is any hydrophobic amino acid). X-Ray Crystallography of the P20.1 Antibody Fab Fragment-Peptide Complex (5-1) Amino Acid Sequencing of the P20.1 Antibody Variable Region DNA Cloning from Hybridoma

P4(20)-Fn = molecular target: T1, P4(20)-Fn (Homo sapiens, UniProt P02751); assay: Surface plasmon resonance analysis (Biacore): binding affinity of P20.1 antibody for P4 peptide sequence
T1 construct: the 9th to 10th region of the Fn3 domain of human fibronectin (185 residues); made in house; host or cells: pET11c vector
Procedure: For examination on the binding affinity of the P20.1 antibody for the P4 peptide sequence, the surface plasmon resonance analysis using Biacore was performed. After the P4(20)-Fn (see FIG. 1) purified in the (2-1) was biotinylated and then captured by a streptavidin-immobilized sensor chip, a purified P20.1 antibody was allowed to flow over the prepared sensor chip at various concentrations. […] Similarly, a commercially available Flag ([…] (SEQ ID NO: 19)) and corresponding antibody M2 were used for examination on the affinity of M2 for Flag-tagged Fn (Flag-Fn).

[7] = P20.1 antibody flowed over biotinylated P4(20)-Fn captured on streptavidin sensor chip

- dissociation of protein-P20.1 antibody binding by free peptide [1]: almost complete dissociation
Molecule: PRGYPGQV [P4(C8) peptide]
- peptide concentration that eluted the tagged fusion protein [2]: ≥ 0.1 mg/mL

Molecule: GYPGQV [P4 sequence]
- recognition by / responsiveness to the P20.1 antibody (P20.1 antibody [3]): enough for recognition by the P20.1 antibody

- affinity / binding capacity for the P20.1 antibody (P20.1 antibody [4]): extremely weak affinity
- Binding efficiency (P20.1 antibody-Sepharose): 14%
Molecule: P4: hGH/fibrinogen γC fusion protein tagged with 1 repeat of the P4 sequence GYPGQV
- signals in sandwich ELISA (P20.1 antibody [5]): only weak signals were detected in 3-fold or less diluted supernatant

Molecule: GGDDSTPSILPAPRGYPGQVC [P4 peptide]
- recognition by / responsiveness to the P20.1 antibody (P20.1 antibody [3]): can be recognized by the P20.1 antibody

- Binding efficiency (P20.1 antibody-Sepharose): 78%
Molecule: P4 × 3: hGH/fibrinogen γC fusion protein tagged with 3 repeats of the P4 sequence GYPGQV
- signals in sandwich ELISA (P20.1 antibody [5]): dose-dependent signals were observed in 30-fold or less diluted supernatant

- affinity / binding capacity for the P20.1 antibody (P20.1 antibody [4]): further increased binding capacity
- Binding efficiency (P20.1 antibody-Sepharose): 80%
Molecule: P4 × 5: hGH/fibrinogen γC fusion protein tagged with 5 repeats of the P4 sequence GYPGQV
- signals in sandwich ELISA (P20.1 antibody [5]): dose-dependent signals were observed in 30-fold or less diluted supernatant

- Ka (P4(20)-Fn; [7]): 365000 M⁻¹ s⁻¹
- Kd(1/s) (P4(20)-Fn; [7]): 0.00123 s⁻¹
- Kd (P4(20)-Fn; P20.1 antibody flowed over biotinylated P4(20)-Fn captured on streptavidin sensor chip, read-out: KD): 3.38 nM
- Kd (P4(20)-Fn; affinity for the P4(20)-Fn, read-out: apparent dissociation equilibrium constant (Kd)): ~3.4 nM
B1: P20.1 Ab: monoclonal antibody produced by mouse-mouse hybridoma P20.1 (FERM BP-11061), IgG1 isotype, λ light chains, against N-terminal 20 residues of human PAR4 (antibody, V domains shown)
VH: QIQLVQSGPEVQKPGETVRISCKASGYTFTTAGMQWVQKMPGKSLKWIGWINTRSGVPKYAEDFKGRFAFSLETSASIAYLHINNLKNEDTATYFCAREGPGFVYWGQGTLVTVSA
VL: QTVVTQESALTTSPGETVTLTCRSSTGVVTTSNYANWVQEKPDHLFTGLIVGTNNRVPGVPPRFSGSLIGDKAALTITGAQTEDEAIYFCALWYSNHWVFGGGTKLTVL
- peptide sequence required for recognition [6]: requires the presence of tyrosine, glycine and glutamine at position 2, 4 and 5
